# Reference: US9809584B1, “Sulfur-containing oxazine compound and synthesis method thereof” (National Tsing Hua University, priority 2016, dated 2017)
# Assays:
# [1] = system: staphylococcus ATTC11632(Sr); experiment: Antibacterial activity, zone of inhibition, penicillin resistant Sr strain; type: cell-based
# Description: (§1) Next, the antibacterial activity of the prepared sulfur-containing BPA-FBz compounds is evaluated using two strains of staphylococcus ATTC6341(Sa) and ATTC11632(Sr), and the results are shown in Table 2. In particular, the Sa strain and the Sr strain have different sensitivities to antibiotics. The Sa strain is penicillin sensitive, and the Sr strain is penicillin resistant, and ampicillin is used as positive control. It can be known from Table 2 that, none of BPA-FBz and sulfur-containing BPA-FBz compounds having low sulfur content (i.e., compounds 1 and 2) has antibacterial activity.
# [2] = system: staphylococcus ATTC6341(Sa); experiment: Antibacterial activity, zone of inhibition, penicillin sensitive Sa strain; type: cell-based
# Description: as §1
# [3] = dash = no antibacterial activity
smiles,measurement,setting,value
"CC1(C)S[C@@H]2[C@H](NC(=O)[C@H](N)c3ccccc3)C(=O)N2[C@H]1C(=O)O [Ampicillin, ampicillin]",Zone of inhibition,[1]; [3],9.0 mm
same,Zone of inhibition,[2]; [3],34.0 mm
"CC(C)(c1ccc2c(c1)CN(Cc1ccco1)CO2)c1ccc2c(c1)CN(Cc1ccco1)CO2 [BPA-FBz, bis(3-furfuryl-3,4-dihydro-2H-1,3-benzoxazinyl)isopropane]",antibacterial activity (in words),[1],none
same,antibacterial activity (in words),[2],none
